According to patent US20090035394A1, “USE OF DNA-PK INHIBITION TO SENSITISE ATM DEFICIENT CANCERS TO DNA-DAMAGING CANCER THERAPIES” (priority 2005, published 2009):

Tests used:
pEBS7 (ATM-null) cells = experiment: Chemopotentiation, sulforhodamine B growth assay in 96 well plates; type: cell-based, human; details: for % survival / Avg (absorbance at 564 nm): no inhibitor, pEBS7; for PF50 (potentiation factor at 50% cell kill): damaging agent without / with KU-0060648 (0.5 μM), pEBS7 (ATM-null)
Procedure: (§1) The A-T fibroblast AT221JE-T cells (pEBS7, herein referred to as ATM-null cells) and the trans-complemented ATM+/+ (pEBS7-YZ5, herein referred to as ATM-competent cells) were grown in DMEM+20% FBS PSG and 100 ug/ml hygromycin. These cells are immortalised fibroblasts from an A-T patient which were transfected with pEBS7-YZ5 vector coding for full length ATM and the hygromycin resistance marker or pEBS7 vector, coding for the hygromycin resistance marker only. (Ziv Y et al (1997) Oncogene 15, 159-67)
(§2) Following a 4-hour incubation to allow cell adherence, 5 μl DNA-PKcS inhibitor KU-0060648 (final concentration 0.5 μM) or DMSO/PBS equivalent was added. After a further 1 hour incubation, 5 μl of chemotherapeutic drug was added per well (see table 1). Drugs were removed after 16 hours and 150 μl fresh medium added per well. After 24h, one plate for each cell line was fixed and stained to account for background differences between the lines. Five days after seeding, the medium was aspirated from the wells of the remaining assay plates and 100 μl ice cold 10% TCA added for 30 minutes at 4° C. The wells were then washed four times with tap water and 50 μl 0.4% sulforhodamine B in 1% acetic acid added per well. After 15 minutes incubation at room temperature, excess stain was washed from the wells with 1% acetic acid. 100 μl […] pH6.8 was then added per well, the plates shaken to resuspend the stain and the absorbance at 564 nm determined.

[1] = system: pEBS7-YZ5 (ATM-competent, ATM+/+) cells; experiment: as above; type: cell-based, human; details: for % survival / Avg (absorbance at 564 nm): no inhibitor, pEBS7-YZ; for PF50 (potentiation factor at 50% cell kill): damaging agent without / with KU-0060648 (0.5 μM), pEBS7-YZ (ATM-competent)
Procedure: as §1, §2

[2] = Con: etoposide 0.01 (μg/ml per Table 1)
[3] = Con: etoposide 0.025 (μg/ml per Table 1)
[4] = Con: etoposide 0.05 (μg/ml per Table 1)
[5] = Con: etoposide 0.075 (μg/ml per Table 1)
[6] = Con: etoposide 0.1 (μg/ml per Table 1)
[7] = Con: etoposide 0.25 (μg/ml per Table 1)
[8] = Con: etoposide 0.5 (μg/ml per Table 1)
[9] = Con: etoposide 0.75 (μg/ml per Table 1)
[10] = Con: etoposide 1 (μg/ml per Table 1)
[11] = Con: etoposide 2.5 (μg/ml per Table 1)
[12] = Con: etoposide 5 (μg/ml per Table 1)
[13] = Con: doxorubicin 0.01 (unit not given)
[14] = Con: doxorubicin 0.025 (unit not given)
[15] = Con: doxorubicin 0.05 (unit not given)
[16] = Con: doxorubicin 0.075 (unit not given)
[17] = Con: doxorubicin 0.1 (unit not given)
[18] = Con: doxorubicin 0.25 (unit not given)
[19] = Con: doxorubicin 0.5 (unit not given)
[20] = Con: doxorubicin 0.75 (unit not given)
[21] = Con: doxorubicin 1 (unit not given)
[22] = Con: doxorubicin 2.5 (unit not given)
[23] = Con: doxorubicin 5 (unit not given)

## COc1cc([C@@H]2c3cc4c(cc3[C@@H](O[C@@H]3O[C@@H]5CO[C@@H](C)O[C@H]5[C@H](O)[C@H]3O)[C@H]3COC(=O)[C@H]23)OCO4)cc(OC)c1O [Etoposide, etoposide, reference compound]
pEBS7 (ATM-null) cells; [2]
  % survival: 84.6%
  Avg (absorbance at 564 nm): 1.38
pEBS7 (ATM-null) cells; [3]
  % survival: 84.9%
  Avg (absorbance at 564 nm): 1.38
pEBS7 (ATM-null) cells; [4]
  % survival: 89.0%
  Avg (absorbance at 564 nm): 1.45
pEBS7 (ATM-null) cells; [5]
  % survival: 90.8%
  Avg (absorbance at 564 nm): 1.48
pEBS7 (ATM-null) cells; [6]
  % survival: 80.6%
  Avg (absorbance at 564 nm): 1.31
pEBS7 (ATM-null) cells; [7]
  % survival: 66.8%
  Avg (absorbance at 564 nm): 1.09
pEBS7 (ATM-null) cells; [8]
  % survival: 53.0%
  Avg (absorbance at 564 nm): 0.86
pEBS7 (ATM-null) cells; [9]
  % survival: 15.8%
  Avg (absorbance at 564 nm): 0.26
pEBS7 (ATM-null) cells; [10]
  % survival: 2.5%
  Avg (absorbance at 564 nm): 0.04
pEBS7 (ATM-null) cells; [11]
  % survival: 1.2%
  Avg (absorbance at 564 nm): 0.02
pEBS7 (ATM-null) cells; [12]
  % survival: −1.6%
  Avg (absorbance at 564 nm): −0.03
pEBS7 (ATM-null) cells
  PF50 (potentiation factor at 50% cell kill): 6.5
[1]; [2]
  % survival: 103.9%
  Avg (absorbance at 564 nm): 1.74
[1]; [3]
  % survival: 93.1%
  Avg (absorbance at 564 nm): 1.56
[1]; [4]
  % survival: 94.1%
  Avg (absorbance at 564 nm): 1.58
[1]; [5]
  % survival: 96.6%
  Avg (absorbance at 564 nm): 1.62
[1]; [6]
  % survival: 104.2%
  Avg (absorbance at 564 nm): 1.75
[1]; [7]
  % survival: 95.8%
  Avg (absorbance at 564 nm): 1.60
[1]; [8]
  % survival: 95.0%
  Avg (absorbance at 564 nm): 1.59
[1]; [9]
  % survival: 75.1%
  Avg (absorbance at 564 nm): 1.26
[1]; [10]
  % survival: 32.4%
  Avg (absorbance at 564 nm): 0.54
[1]; [11]
  % survival: 39.0%
  Avg (absorbance at 564 nm): 0.65
[1]; [12]
  % survival: 21.7%
  Avg (absorbance at 564 nm): 0.36
[1]
  PF50 (potentiation factor at 50% cell kill): 1.7

## COc1cccc2c1C(=O)c1c(O)c3c(c(O)c1C2=O)C[C@@](O)(C(=O)CO)C[C@@H]3O[C@H]1C[C@H](N)[C@H](O)[C@H](C)O1 [Doxorubicin, doxorubicin, reference compound]
pEBS7 (ATM-null) cells; [13]
  % survival: 111.8%
  Avg (absorbance at 564 nm): 1.46
pEBS7 (ATM-null) cells; [14]
  % survival: 117.0%
  Avg (absorbance at 564 nm): 1.53
pEBS7 (ATM-null) cells; [15]
  % survival: 106.4%
  Avg (absorbance at 564 nm): 1.39
pEBS7 (ATM-null) cells; [16]
  % survival: 113.1%
  Avg (absorbance at 564 nm): 1.47
pEBS7 (ATM-null) cells; [17]
  % survival: 111.2%
  Avg (absorbance at 564 nm): 1.45
pEBS7 (ATM-null) cells; [18]
  % survival: 63.8%
  Avg (absorbance at 564 nm): 0.83
pEBS7 (ATM-null) cells; [19]
  % survival: 37.3%
  Avg (absorbance at 564 nm): 0.49
pEBS7 (ATM-null) cells; [20]
  % survival: 12.6%
  Avg (absorbance at 564 nm): 0.16
pEBS7 (ATM-null) cells; [21]
  % survival: −0.9%
  Avg (absorbance at 564 nm): −0.01
pEBS7 (ATM-null) cells; [22]
  % survival: −2.6%
  Avg (absorbance at 564 nm): −0.03
pEBS7 (ATM-null) cells; [23]
  % survival: −3.6%
  Avg (absorbance at 564 nm): −0.05
pEBS7 (ATM-null) cells
  PF50 (potentiation factor at 50% cell kill): 2.3
[1]; [13]
  % survival: 88.3%
  Avg (absorbance at 564 nm): 1.43
[1]; [14]
  % survival: 89.4%
  Avg (absorbance at 564 nm): 1.45
[1]; [15]
  % survival: 87.3%
  Avg (absorbance at 564 nm): 1.42
[1]; [16]
  % survival: 94.1%
  Avg (absorbance at 564 nm): 1.53
[1]; [17]
  % survival: 103.9%
  Avg (absorbance at 564 nm): 1.69
[1]; [18]
  % survival: 95.3%
  Avg (absorbance at 564 nm): 1.55
[1]; [19]
  % survival: 53.4%
  Avg (absorbance at 564 nm): 0.87
[1]; [20]
  % survival: 33.2%
  Avg (absorbance at 564 nm): 0.54
[1]; [21]
  % survival: 8.8%
  Avg (absorbance at 564 nm): 0.14
[1]; [22]
  % survival: −1.7%
  Avg (absorbance at 564 nm): −0.03
[1]; [23]
  % survival: −2.6%
  Avg (absorbance at 564 nm): −0.04
[1]
  PF50 (potentiation factor at 50% cell kill): 1.5
